The values that follow come from patent publication US20240043403A1, “HETEROARYL CARBOXAMIDE COMPOUND” (Astellas Pharma Inc., priority 2020, published 2024).

For this assay, the target named is human recombinant DGK ξ (Homo sapiens (Human), UniProt Q13574). Put plainly: Evaluation of DGK ξ inhibitory effect (ADP-Glo Kinase Assay). The class given is biochemical. The following applies: ADP-Glo luminescence. As to the method: Test Example 1. Evaluation of DGK ξ Inhibitory Effect
The inhibitory effect of a test compound on human recombinant DGK ξ (Cama Biosciences, Inc., 12-410-20N) was examined by the following method in which detection is performed with ADP-Glo™ Kinase Assay (Promega Corporation).
To a 384-well plate (Greiner Bio-One Co., Ltd.), 3 μL of a DGK ξ enzyme dissolved in an assay buffer (40 mM Tris-HCl pH 7.5, 10 mM MgCl2, 1 mM dithiothreitol (DTT) and 0.1 mg/mL bovine serum albumin (BSA)) (90 ng/mL) was added, and 3 μL of the test compound diluted with the same assay buffer was added so that an intended final concentration was obtained. The mixture was left standing at room temperature for 15 minutes, 3 μL of a substrate (150 μM 1-oleoyl-2-acetyl-sn-glycerol (Sigma-Aldrich Co. LLC), 480 μM phosphatidylserine (Avanti, Inc.) and 150 μM UltraPure-ATP (attached to ADP-Glo)) was then added, and the mixture was left standing at room temperature for 30 minutes to react. Thereafter, 3 μL of an ADP-Glo Reagent was added, and the mixture was left standing at room temperature for 40 minutes to stop the enzyme reaction. Further, 6 μL of a Kinase-Detection Reagent was added, the mixture was left standing at room temperature for 30 minutes, and the luminescence was then measured using ARVO X3 (PerkinElmer, Inc.). The half maximal inhibitory concentration (IC50) was calculated by Sigmoid-Emax model non-linear regression analysis, where the signal value in solvent treatment was set to 0% inhibition and the signal value without addition of the DGK ξ enzyme was set to 100% inhibition. […] In the table. Ex represents the number of each Example described below.
Background: ADP-Glo first removes unused ATP, then detects ADP through luciferase.

Molecules are shown by their SMILES. Where a name gives a salt, the structure may show the parent alone.

human recombinant DGK ξ, sequence (Q13574 whole entry): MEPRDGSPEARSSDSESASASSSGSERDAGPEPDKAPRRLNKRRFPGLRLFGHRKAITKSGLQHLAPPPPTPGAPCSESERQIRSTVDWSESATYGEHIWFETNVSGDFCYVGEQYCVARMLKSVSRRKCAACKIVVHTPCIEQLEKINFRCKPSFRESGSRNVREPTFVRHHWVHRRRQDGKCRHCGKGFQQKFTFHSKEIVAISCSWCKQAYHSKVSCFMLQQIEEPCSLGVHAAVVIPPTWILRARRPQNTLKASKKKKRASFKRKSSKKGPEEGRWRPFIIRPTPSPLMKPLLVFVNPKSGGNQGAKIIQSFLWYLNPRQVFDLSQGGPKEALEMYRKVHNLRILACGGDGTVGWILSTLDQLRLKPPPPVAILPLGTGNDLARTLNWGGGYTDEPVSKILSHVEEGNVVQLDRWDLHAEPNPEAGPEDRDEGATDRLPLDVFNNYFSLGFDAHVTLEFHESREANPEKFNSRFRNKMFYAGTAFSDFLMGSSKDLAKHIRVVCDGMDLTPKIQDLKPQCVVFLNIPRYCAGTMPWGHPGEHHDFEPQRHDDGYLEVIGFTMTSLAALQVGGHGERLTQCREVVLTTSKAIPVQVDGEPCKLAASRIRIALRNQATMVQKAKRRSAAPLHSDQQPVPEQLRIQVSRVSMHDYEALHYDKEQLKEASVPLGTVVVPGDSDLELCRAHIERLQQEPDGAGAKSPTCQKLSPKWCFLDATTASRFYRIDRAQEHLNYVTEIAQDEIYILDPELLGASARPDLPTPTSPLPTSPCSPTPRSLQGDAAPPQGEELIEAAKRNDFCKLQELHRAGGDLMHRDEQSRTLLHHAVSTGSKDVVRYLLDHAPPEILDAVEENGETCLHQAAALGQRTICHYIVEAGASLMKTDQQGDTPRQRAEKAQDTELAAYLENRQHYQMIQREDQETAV

Take `NC[C@@H]1CCCN(c2c(NC(=O)c3ccn(CC(F)F)n3)ccc(Oc3ccccc3)c2C(F)(F)F)C1` [Example 2]: the concentration for half-maximal inhibition (IC50) is 28 nM.

For the compound `NC[C@@H]1CCCN(c2c(NC(=O)c3ccn(C(F)F)n3)ccc(Oc3ccccc3)c2C(F)(F)F)C1` [Example 3], the IC50 was determined as 150 nM. In the case of `NC[C@@H]1CCCN(c2c(NC(=O)c3ccn(CC(F)F)n3)ccc(OC3CCCC3)c2C(F)(F)F)C1` [Example 4], the IC50 was 170 nM. As for `NC[C@@H]1CCCN(c2c(NC(=O)c3ccn(CC(F)F)n3)ccc(OC3CC3)c2C(F)(F)F)C1` [Example 5], the IC50 amounted to 330 nM.

On to `NC[C@@H]1CCCN(c2c(NC(=O)c3ccn(CC(F)F)n3)ccc(Oc3ccccc3F)c2F)C1` [Example 6], for which the IC50 amounted to 57 nM. As to `NC[C@@H]1CCCN(c2c(NC(=O)c3ccn(CC(F)F)n3)ccc(Oc3ccc(F)cc3)c2C(F)(F)F)C1` [Example 8], the IC50 was 88 nM.

With `NC[C@@H]1CCCN(c2c(NC(=O)c3ccn(CC(F)F)n3)ccc(Oc3ccccc3Cl)c2C(F)(F)F)C1` [Example 9], the concentration for half-maximal inhibition (IC50) came out at 9.3 nM. Take `O=C(Nc1ccc(Oc2ccccc2F)c(C(F)(F)F)c1N1CCC[C@@H](CNC2CC2)C1)c1ccn(CC(F)F)n1` [Example 10]: the IC50 is 93 nM. Take `NC[C@@H]1CCCN(c2c(NC(=O)c3cccn(CC(F)F)c3=O)ccc(Oc3ccccc3F)c2C(F)(F)F)C1` [Example 11]: the IC50 is 35 nM. Turning to `CNC[C@H]1CN(c2c(NC(=O)c3ccn(CC(F)F)n3)ccc(C3CCCC3)c2C(F)(F)F)CCN1C` [Example 14], the IC50 amounted to 150 nM.

With `CN1CCN(c2c(NC(=O)c3cccn(CC(F)F)c3=O)ccc(Oc3ccccc3Cl)c2C(F)(F)F)C[C@@H]1CN` [Example 15], the IC50 was 99 nM. Turning to `CN1CCN(c2c(NC(=O)c3cccn(CC(F)F)c3=O)ccc(Oc3ccccc3F)c2C(F)(F)F)C[C@@H]1CN` [Example 16], the half-inhibitory concentration (IC50) was found to be 73 nM. For `CN1CCN(c2c(NC(=O)c3ccn(CC(F)F)n3)ccc(OC3CCC3)c2C(F)(F)F)C[C@@H]1CN` [Example 17], the concentration for half-maximal inhibition (IC50) came to 190 nM. As for `CN1CCN(c2c(NC(=O)c3ccn(CC(F)F)n3)ccc(Oc3ccc(F)cc3F)c2C(F)(F)F)C[C@@H]1CN` [Example 18], the figure is 130 nM; as for `CN1CCN(c2c(NC(=O)c3ccn(CC(F)F)n3)ccc(Oc3ccccc3F)c2C(F)(F)F)C[C@H]1CN` [Example 19], 960 nM. On to `CN1CCN(c2c(NC(=O)c3cccn(CC(F)F)c3=O)ccc(Oc3ccccc3F)c2C(F)(F)F)C[C@H]1CN` [Example 21], for which the IC50 was 1100 nM. As for `CNC[C@H]1CN(c2c(NC(=O)c3coc(-c4ccnnc4)n3)ccc(Oc3ccccc3F)c2C(F)(F)F)CCN1C` [Example 22, N-[4-(2-fluorophenoxy)-2-{(3S)-4-methyl-3-[(methylamino)methyl]piperazin-yl}-3-(trifluoromethyl)phenyl]-2-(pyridazin-4-yl)-1,3-oxazole-4-carboxamide trihydrochloride], the figure is 18 nM; as for `CNC[C@H]1CN(c2c(NC(=O)c3ccn(CC(F)F)n3)ccc(Oc3ccccc3F)c2C(F)(F)F)CCN1C` [Example 23], 63 nM; as for `CNC[C@H]1CN(c2c(NC(=O)c3ccn(CC(F)F)n3)ccc(Oc3ccccc3Cl)c2C(F)(F)F)CCN1C` [Example 24], 36 nM. On to `CNC[C@H]1CN(c2c(NC(=O)c3ccn(CC(F)F)n3)ccc(Oc3ccccc3F)c2F)CCN1C` [Example 25], for which the IC50 turned out to be 73 nM. As for `CNC[C@H]1CN(c2c(NC(=O)c3ccn(CC(F)F)n3)ccc(Oc3ccccc3Cl)c2Cl)CCN1C` [Example 26], the IC50 is 19 nM.

For `CNC[C@H]1CN(c2c(NC(=O)c3ccn(CC(F)F)n3)ccc(Oc3ccccc3F)c2Cl)CCN1C` [Example 27], the IC50 stood at 37 nM. For `CN1CCN(c2c(NC(=O)c3ccn(CC(F)F)n3)ccc(Oc3ccc(F)cc3)c2C(F)(F)F)C[C@@H]1CN` [Example 28], the IC50 worked out at 240 nM. As for `NC[C@@H]1CCCN(c2c(NC(=O)c3ccn(-c4ccnnc4)n3)ccc(Oc3ccccc3)c2C(F)(F)F)C1` [Example 31], the IC50 was 23 nM.

On to `N#Cc1ccccc1Oc1ccc(NC(=O)c2ccn(CC(F)F)n2)c(N2CCC[C@@H](CN)C2)c1C(F)(F)F` [Example 32], for which the IC50 was found to be 100 nM. As to `NC[C@@H]1CCCN(c2c(NC(=O)c3ccn(-c4ccnnc4)n3)ccc(Oc3ccccc3Cl)c2C(F)(F)F)C1` [Example 33], the half-inhibitory concentration (IC50) amounted to 4.8 nM. For `NC[C@@H]1CCCN(c2c(NC(=O)c3ccn(-c4ccnnc4)n3)ccc(Oc3ccccc3F)c2C(F)(F)F)C1` [Example 34], the IC50 was 3.1 nM. With `Cc1cc(C(=O)Nc2ccc(Oc3ccccc3)c(C(F)(F)F)c2N2CCC[C@@H](CN)C2)nn1-c1ccnnc1` [Example 35], the IC50 is 45 nM. `O=C(Nc1ccc(Oc2ccccc2F)c(C(F)(F)F)c1N1CCC[C@@H](CNC2CC2)C1)c1ccn(-c2ccnnc2)n1` [Example 36]: the IC50 came to 55 nM. Regarding `Cc1cc(C(=O)Nc2ccc(Oc3ccccc3F)c(C(F)(F)F)c2N2CCC[C@@H](CN)C2)nn1-c1ccnnc1` [Example 37], the IC50 came to 23 nM. `CN1CCN(c2c(NC(=O)c3ccn(-c4ccnnc4)n3)ccc(Oc3ccccc3F)c2C(F)(F)F)C[C@@H]1CN` [Example 38]: the IC50 came to 4.1 nM.

Regarding `Cc1cn(-c2ccnnc2)nc1C(=O)Nc1ccc(Oc2ccccc2F)c(C(F)(F)F)c1N1CCC[C@@H](CN)C1` [Example 39], the half-inhibitory concentration (IC50) was found to be 39 nM. For the compound `CN1CCN(c2c(NC(=O)c3ccn(-c4ccnnc4)n3)ccc(OC3CCCC3)c2C(F)(F)F)C[C@@H]1CN` [Example 40], the IC50 is 5.2 nM. As for `CN1CCN(c2c(NC(=O)c3coc(-c4ccnnc4)n3)ccc(OC3CCCC3)c2C(F)(F)F)C[C@@H]1CN` [Example 41], the figure is 5 nM; as for `NC[C@@H]1CCCN(c2c(NC(=O)c3coc(-c4ccnnc4)n3)ccc(-c3ccccc3F)c2C(F)(F)F)C1` [Example 42], 150 nM.

As to `NC[C@@H]1CCCN(c2c(NC(=O)c3ccn(-c4ccnnc4)n3)ccc(-c3ccccc3F)c2C(F)(F)F)C1` [Example 43], the half-inhibitory concentration (IC50) was 30 nM. `CNC[C@H]1CN(c2c(NC(=O)c3ccn(-c4ccnnc4)n3)ccc(OC3CCCC3)c2C(F)(F)F)CCN1C` [Example 44]: the IC50 is 8.6 nM. As to `CN1CCN(c2c(NC(=O)c3ccn(-c4ccnnc4)n3)ccc(Oc3ccccc3Cl)c2C(F)(F)F)C[C@@H]1CN` [Example 46], the IC50 was found to be 3.1 nM.

Regarding `CNC[C@H]1CN(c2c(NC(=O)c3coc(-c4ccnnc4)n3)ccc(C3CCCC3)c2C(F)(F)F)CCN1C` [Example 49], the IC50 was found to be 7.8 nM. `CNC[C@H]1CN(c2c(NC(=O)c3ccn(-c4ccnnc4)n3)ccc(C3=CCOCC3)c2C(F)(F)F)CCN1C` [Example 50]: the IC50 stood at 55 nM. On to `CN1CCN(c2c(NC(=O)c3ccn(-c4ccnnc4)n3)ccc(OC3CCC3)c2C(F)(F)F)C[C@@H]1CN` [Example 51], for which the IC50 was found to be 17 nM. As for `CN1CCN(c2c(NC(=O)c3ccn(-c4ccnnc4)n3)ccc(Oc3ccc(F)cc3)c2C(F)(F)F)C[C@@H]1CN` [Example 52], the figure is 46 nM. For the compound `CN1CCN(c2c(NC(=O)c3coc(-c4ccnnc4)n3)ccc(Oc3ccc(F)cc3)c2C(F)(F)F)C[C@@H]1CN` [Example 53], the IC50 came to 29 nM. As for `CN1CCN(c2c(NC(=O)c3ccn(-c4ccnnc4)n3)ccc(Oc3ccccc3F)c2C(F)(F)F)C[C@H]1CN` [Example 54], the figure is 12 nM; as for `CN1CCN(c2c(NC(=O)c3coc(-c4ccnnc4)n3)ccc(Oc3ccccc3F)c2C(F)(F)F)C[C@H]1CN` [Example 55], 12 nM; as for `CN1CCN(c2c(NC(=O)c3ccn(-c4ccnnc4)n3)ccc(Oc3ccccc3Cl)c2Cl)C[C@@H]1CN` [Example 56], 0.89 nM. For the compound `CN1CCN(c2c(NC(=O)c3coc(-c4ccnnc4)n3)ccc(Oc3ccccc3Cl)c2Cl)C[C@@H]1CN` [Example 57], the half-maximal inhibitory concentration (IC50) was 0.42 nM. As to `NCC1(F)CCCN(c2c(NC(=O)c3ccn(-c4ccnnc4)n3)ccc(Oc3ccccc3F)c2C(F)(F)F)C1` (stereo not drawn) [Example 58], the IC50 is 21 nM.

Consider `CNC[C@H]1CN(c2c(NC(=O)c3ccn(-c4ccnnc4)n3)ccc(-c3ccccc3F)c2C(F)(F)F)CCN1C` [Example 59], for which the IC50 was determined as 11 nM. For `CNC[C@H]1CN(c2c(NC(=O)c3coc(-c4ccnnc4)n3)ccc(-c3ccccc3F)c2C(F)(F)F)CCN1C` [Example 60], the IC50 came to 27 nM.

As for `NC[C@@H]1CCCN(c2c(NC(=O)c3ccn(-c4ccnnc4)n3)ccc(Oc3ccccn3)c2C(F)(F)F)C1` [Example 61], the IC50 worked out at 46 nM. As for `Cc1ccccc1Oc1ccc(NC(=O)c2ccn(-c3ccnnc3)n2)c(N2CCC[C@@H](CN)C2)c1C(F)(F)F` [Example 62], the IC50 was 6.9 nM. On to `NC[C@@H]1CCCN(c2c(NC(=O)c3ccn(-c4ccnnc4)n3)ccc(OC3CC3)c2-c2ccccc2)C1` [Example 63], for which the IC50 was determined as 70 nM. The result for `COCCNC[C@@H]1CCCN(c2c(NC(=O)c3ccn(-c4ccnnc4)n3)ccc(Oc3ccccc3F)c2C(F)(F)F)C1` [Example 64] reads 13 nM.

As a reminder, the IC50 is the concentration that inhibits the measured activity by half.
